Results: ChEMBL document CHEMBL1201862, “PubChem BioAssay data set” (2004)
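Growth conditions: 96-well plates. Treatment: test compound, 48 hours, 5 concentrations. Analysis: linear interpolation between bracketing concentrations; unreached endpoints set to highest concentration. Here, GI50 denotes the concentration required for 50% inhibition of growth.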 The source made the active and inactive calls. Cut-off read from the data, not from the text of the source: active = GI50 up to about 1.1 µM and inactive = higher.

Legend:
Test in all cases: NCI-60 cell line screen, 48 h
[1] = test system: HCC 2998
[2] = test system: HL-60
[3] = test system: HT-29
[4] = test system: K562
[5] = test system: LOX IMVI
[6] = test system: M19-MEL
[7] = test system: NCI-H23
[8] = test system: OVCAR-3
[9] = test system: SK-MEL-28
[10] = test system: SK-MEL-2
[11] = test system: SK-OV-3
[12] = test system: SNB-75
[13] = test system: SNB-78
[14] = test system: TK-10
[15] = test system: SN12C

Measured: GI50

COc1cc2c(cc1O)[C@H](C)C(c1ccc(Cl)cc1)O2 (stereo partly specified)
inactive: [1] 18.5 µM | [2] 14.2 µM | [3] 30.9 µM | [4] 18.3 µM | [5] 16 µM | [6] 15.8 µM | [7] 21 µM | [8] 37.4 µM | [9] 28.6 µM | [10] 21.3 µM | [11] 23.3 µM | [12] 2.72 µM | [13] 21.3 µM | [14] 24.4 µM

CN1N=C2c3ccccc3CC[C@H]2C1c1ccccc1 (stereo partly specified)
inactive: [1] 85.7 µM | [2] 29.6 µM | [3] 22.9 µM | [4] > 100 µM | [5] 47.1 µM | [6] 15.7 µM | [7] 16.1 µM | [8] 41.8 µM | [9] > 100 µM | [10] 24.5 µM | [11] 2.56 µM | [15] 42.1 µM | [13] 83.9 µM | [14] > 100 µM

Cc1nc(C(N)=S)sc1C(=O)CC(=O)C(=O)Nc1ccccc1[N+](=O)[O-]
inactive: [1] > 100 µM | [2] > 100 µM | [3] > 100 µM | [4] > 100 µM | [5] > 100 µM | [6] > 100 µM | [7] > 100 µM | [8] > 100 µM | [9] > 100 µM | [10] > 100 µM | [11] > 100 µM | [12] > 100 µM | [13] > 100 µM | [14] > 100 µM

COC(=O)CCC(NC(=S)N/N=C/c1ccccn1)C(=O)OC (stereo unspecified)
inactive: [1] > 100 µM | [2] 84.3 µM | [3] > 100 µM | [4] > 100 µM | [5] > 100 µM | [6] > 100 µM | [7] > 100 µM | [8] > 100 µM | [9] > 100 µM | [10] > 100 µM | [11] > 100 µM | [15] > 100 µM | [12] > 100 µM | [13] > 100 µM | [14] > 100 µM

O=C(Cc1ccccc1)NN1C(=O)C(Cl)C1c1ccc([N+](=O)[O-])cc1 (stereo unspecified)
inactive: [1] > 100 µM | [2] 70.5 µM | [3] > 100 µM | [4] 65.6 µM | [5] 87.5 µM | [6] > 100 µM | [7] 53.5 µM | [8] > 100 µM | [9] > 100 µM | [10] > 100 µM | [11] > 100 µM | [15] 96.4 µM | [12] 93.8 µM | [13] 45.9 µM | [14] > 100 µM

O=C1CC(O)(c2ccccc2)C(c2ccccc2)=C1c1ccccc1 (stereo unspecified)
inactive: [1] 57.1 µM | [2] 24.3 µM | [3] 42.8 µM | [4] 30.5 µM | [5] 38.2 µM | [6] 29.6 µM | [7] 35.9 µM | [8] 29.4 µM | [9] 39.8 µM | [10] 25.5 µM | [11] > 100 µM | [15] 38.6 µM | [12] 27.8 µM | [13] 73.6 µM | [14] 81.5 µM

C/C=C(\NC(=O)C(CCCCN)NC(=O)C(C)NC(=O)C1CSC(C)C(NC(=O)C2CSCC(NC(=O)C(C)NC(=O)C(N)C(C)CC)C(=O)NC(CCCCN)C(=O)NC(Cc3ccccc3)C(=O)NC(CC(C)C)C(=O)N2)C(=O)N2CCCC2C(=O)NCC(=O)N1)C(=O)NCC(=O)NC1CSCC2NC(=O)C(Cc3ccc(O)cc3)NC(=O)C(CSC=CNC2=O)NC(=O)C(CC(N)=O)NC(=O)C(Cc2ccccc2)NC1=O (stereo unspecified)
inactive: [1] > 100 µM | [2] > 100 µM | [3] > 100 µM | [4] > 100 µM | [5] > 100 µM | [6] 67.8 µM | [7] > 100 µM | [8] > 100 µM | [9] 78.3 µM | [10] > 100 µM | [15] > 100 µM | [12] 20.3 µM | [13] > 100 µM | [14] > 100 µM

Cc1cccc(C(C)C)c1N1C(=O)C(=O)C(c2nc3ccccc3o2)C(=O)C1=O
inactive: [1] 95.7 µM | [2] 30.3 µM | [3] 56.2 µM | [4] 49 µM | [5] 41.7 µM | [6] 55.3 µM | [7] 80.2 µM | [8] 32.1 µM | [9] > 100 µM | [10] > 100 µM | [11] > 100 µM | [15] > 100 µM | [12] 26.9 µM | [13] > 100 µM | [14] > 100 µM

CC1C[C@@H]2C(=O)NC(=O)[C@@H]2c2c1c1ccccc1n2C (stereo partly specified)
inactive: [1] > 100 µM | [2] > 100 µM | [3] > 100 µM | [4] > 100 µM | [5] > 100 µM | [6] > 100 µM | [7] > 100 µM | [8] > 100 µM | [9] > 100 µM | [10] > 100 µM | [11] > 100 µM | [15] > 100 µM | [12] > 100 µM | [13] > 100 µM | [14] > 100 µM
